Values belong to the compound of their own block, whether it stands above or below them.
Tests used:
[1] = target: 5-hydroxytryptamine receptor 2B (Homo sapiens) (UniProt P41595); conditions: Compound concentration 10.0 uM
[2] = target: 5-hydroxytryptamine receptor 6 (Homo sapiens) (UniProt P50406); conditions: Compound concentration 10.0 uM
[3] = target: D(2) dopamine receptor (Homo sapiens) (UniProt P14416); conditions: Compound concentration 10.0 uM
[4] = target: 5-hydroxytryptamine receptor 2A (Homo sapiens, UniProt P28223); experiment: GPCRScan assay: inhibition of 5-HT2A; set-up: radioligand conc. used [nm] 1.2 – 2.4, parental cells HEKT
[5] = target: Estrogen receptor (Homo sapiens, UniProt P03372); experiment: Inhibition of Estrogen ERalpha at compound concentration of 10.0 uM in the Eurofins-Panlabs radioligand binding assay (Eurofins_assay_226010); set-up: ligand concentration 0.5 nM, non-specific ligand with concentration 1 uM Diethylstilbestrol, incubation time 2 h, incubation temperature 25 C
Estrogen receptor, sequence (P03372 whole entry): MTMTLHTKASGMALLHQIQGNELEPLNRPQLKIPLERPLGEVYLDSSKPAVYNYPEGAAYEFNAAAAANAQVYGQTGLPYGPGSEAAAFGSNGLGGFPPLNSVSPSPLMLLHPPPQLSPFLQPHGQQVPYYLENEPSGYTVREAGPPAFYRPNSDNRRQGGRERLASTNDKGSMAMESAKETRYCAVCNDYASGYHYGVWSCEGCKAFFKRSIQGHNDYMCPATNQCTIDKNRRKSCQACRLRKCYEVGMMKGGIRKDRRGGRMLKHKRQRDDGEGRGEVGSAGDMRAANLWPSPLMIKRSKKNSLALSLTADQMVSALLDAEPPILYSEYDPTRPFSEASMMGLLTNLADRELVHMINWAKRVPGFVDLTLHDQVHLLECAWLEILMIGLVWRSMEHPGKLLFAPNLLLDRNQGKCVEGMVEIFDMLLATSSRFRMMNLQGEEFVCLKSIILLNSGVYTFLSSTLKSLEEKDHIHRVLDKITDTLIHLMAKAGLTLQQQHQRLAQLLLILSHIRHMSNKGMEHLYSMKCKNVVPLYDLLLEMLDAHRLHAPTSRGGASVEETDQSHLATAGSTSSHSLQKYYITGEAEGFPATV

[6] = target: Glutamate receptor ionotropic, kainate (Rattus norvegicus) (UniProt P22756+Q01812+P42260+P42264+Q63273); experiment: Inhibition of Glutamate, Kainate at 10 µM in the Eurofins-Panlabs radioligand binding assay (Eurofins_assay_232700); conditions: Compound concentration 10.0 uM
[7] = organism: Oryctolagus cuniculus; experiment: Inhibition of Purinergic P2X at 10 µM in the Eurofins-Panlabs radioligand binding assay (Eurofins_assay_268700); assay type: protein assay; conditions: Compound concentration 10.0 uM
[8] = target: Adenosine Transporter (Cavia porcellus) (UniProt H0V4R7+H0UUG1+H0V3Z5); experiment: Inhibition of Transporter, Adenosine at compound concentration of 10.0 uM in the Eurofins-Panlabs radioligand binding assay (Eurofins_assay_202000); assay type: protein assay; set-up: ligand concentration 0.5 nM, non-specific ligand with concentration 5 uM Nitrobenzylthioinosine, incubation time 30 min, incubation temperature 25 C; conditions: Compound concentration 10.0 uM
[9] = target: Sodium-dependent dopamine transporter (Homo sapiens, UniProt Q01959); conditions: Compound concentration 10.0 uM
[10] = target: Sigma non-opioid intracellular receptor 1 (Homo sapiens) (UniProt Q99720); conditions: Compound concentration 10.0 uM
[11] = target: Adenosine receptor A1 (Homo sapiens) (UniProt P30542); conditions: Compound concentration 10.0 uM
Adenosine receptor A1 (Homo sapiens), sequence (P30542 whole entry): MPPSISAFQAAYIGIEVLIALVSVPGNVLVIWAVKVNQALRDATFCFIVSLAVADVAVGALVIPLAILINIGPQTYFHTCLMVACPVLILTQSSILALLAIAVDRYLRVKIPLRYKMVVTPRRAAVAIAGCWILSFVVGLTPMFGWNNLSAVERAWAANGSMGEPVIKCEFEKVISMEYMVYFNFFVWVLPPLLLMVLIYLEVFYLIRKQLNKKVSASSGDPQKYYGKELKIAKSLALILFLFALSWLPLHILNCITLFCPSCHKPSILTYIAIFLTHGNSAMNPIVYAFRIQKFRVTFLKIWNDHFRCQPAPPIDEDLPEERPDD

[12] = target: T1, Alpha-1A adrenergic receptor (Homo sapiens) (UniProt P35348); conditions: Rattus norvegicus; Compound concentration 10.0 uM
T1 sequence (whole entry): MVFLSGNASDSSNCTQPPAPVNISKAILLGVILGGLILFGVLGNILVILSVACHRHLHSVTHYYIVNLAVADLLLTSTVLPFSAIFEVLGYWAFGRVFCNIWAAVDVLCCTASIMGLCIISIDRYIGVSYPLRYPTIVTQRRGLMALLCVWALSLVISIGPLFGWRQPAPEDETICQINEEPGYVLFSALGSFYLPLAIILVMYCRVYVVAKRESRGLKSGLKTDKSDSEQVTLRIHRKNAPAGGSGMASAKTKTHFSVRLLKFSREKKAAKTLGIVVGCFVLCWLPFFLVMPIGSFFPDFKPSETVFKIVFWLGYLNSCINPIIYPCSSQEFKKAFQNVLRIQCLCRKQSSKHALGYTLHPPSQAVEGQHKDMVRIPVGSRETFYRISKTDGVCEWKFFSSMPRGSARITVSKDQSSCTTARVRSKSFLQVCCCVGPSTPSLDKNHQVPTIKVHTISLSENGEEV

[13] = target: D(2) dopamine receptor (Homo sapiens) (UniProt P14416); conditions: Compound concentration 10.0 uM; remark: listed apart in the source
[14] = target: Estrogen receptor (Homo sapiens) (UniProt P03372); conditions: Compound concentration 10.0 uM
Estrogen receptor (Homo sapiens), sequence (P03372 whole entry): as the sequence (P03372 whole entry) above

[15] = target: Histamine H1 receptor (Homo sapiens) (UniProt P35367); conditions: Compound concentration 10.0 uM
Histamine H1 receptor (Homo sapiens), sequence (P35367 whole entry): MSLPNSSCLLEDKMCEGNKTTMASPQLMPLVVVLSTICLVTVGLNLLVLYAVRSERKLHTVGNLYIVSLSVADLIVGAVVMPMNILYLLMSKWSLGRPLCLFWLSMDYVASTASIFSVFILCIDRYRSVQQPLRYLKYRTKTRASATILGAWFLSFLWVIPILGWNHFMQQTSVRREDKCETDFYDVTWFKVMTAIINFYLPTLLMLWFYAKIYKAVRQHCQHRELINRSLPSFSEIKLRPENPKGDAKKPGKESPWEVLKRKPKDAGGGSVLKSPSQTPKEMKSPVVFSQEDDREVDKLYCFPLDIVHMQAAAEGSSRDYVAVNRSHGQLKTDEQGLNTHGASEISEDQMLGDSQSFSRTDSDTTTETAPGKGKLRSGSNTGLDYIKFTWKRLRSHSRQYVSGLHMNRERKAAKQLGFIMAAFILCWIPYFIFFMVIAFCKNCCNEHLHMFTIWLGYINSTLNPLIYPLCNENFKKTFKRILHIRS

[16] = target: Histamine H2 receptor (Homo sapiens, UniProt P25021); conditions: Compound concentration 10.0 uM
Histamine H2 receptor, sequence (P25021 whole entry): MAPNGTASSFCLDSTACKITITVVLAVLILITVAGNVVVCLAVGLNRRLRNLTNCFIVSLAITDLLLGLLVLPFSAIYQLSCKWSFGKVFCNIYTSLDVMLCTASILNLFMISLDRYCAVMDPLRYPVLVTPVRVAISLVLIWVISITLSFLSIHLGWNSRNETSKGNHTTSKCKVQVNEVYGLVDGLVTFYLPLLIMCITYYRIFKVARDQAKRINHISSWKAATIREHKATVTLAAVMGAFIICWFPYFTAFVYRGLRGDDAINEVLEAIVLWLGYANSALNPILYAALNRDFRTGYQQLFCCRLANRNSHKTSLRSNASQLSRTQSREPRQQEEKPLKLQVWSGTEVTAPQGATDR

[17] = target: T2, Muscarinic acetylcholine receptor M2 (Homo sapiens) (UniProt P08172); conditions: Compound concentration 10.0 uM
T2 sequence (whole entry): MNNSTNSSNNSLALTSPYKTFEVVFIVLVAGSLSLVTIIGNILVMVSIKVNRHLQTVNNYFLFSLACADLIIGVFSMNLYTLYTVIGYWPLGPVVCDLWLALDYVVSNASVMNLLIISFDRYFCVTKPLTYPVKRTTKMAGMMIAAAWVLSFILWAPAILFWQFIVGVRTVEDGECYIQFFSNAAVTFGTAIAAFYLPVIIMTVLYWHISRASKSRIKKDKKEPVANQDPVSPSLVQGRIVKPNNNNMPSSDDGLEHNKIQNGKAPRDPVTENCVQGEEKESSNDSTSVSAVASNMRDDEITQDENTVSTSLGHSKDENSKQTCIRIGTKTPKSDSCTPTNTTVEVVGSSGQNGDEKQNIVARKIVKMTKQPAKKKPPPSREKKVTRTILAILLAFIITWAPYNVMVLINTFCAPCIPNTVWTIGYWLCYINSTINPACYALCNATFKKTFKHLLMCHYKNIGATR

[18] = target: Delta-type opioid receptor (Homo sapiens) (UniProt P41143); conditions: Compound concentration 10.0 uM
[19] = target: Purinergic P2Y (Rattus norvegicus) (UniProt O35811+Q9EPX4+P49651+Q63371+P41232+O35881+Q6GUG4); conditions: Compound concentration 10.0 uM
[20] = target: T3, 5-hydroxytryptamine receptor 1A (Homo sapiens) (UniProt P08908); conditions: Compound concentration 10.0 uM
T3 sequence (whole entry): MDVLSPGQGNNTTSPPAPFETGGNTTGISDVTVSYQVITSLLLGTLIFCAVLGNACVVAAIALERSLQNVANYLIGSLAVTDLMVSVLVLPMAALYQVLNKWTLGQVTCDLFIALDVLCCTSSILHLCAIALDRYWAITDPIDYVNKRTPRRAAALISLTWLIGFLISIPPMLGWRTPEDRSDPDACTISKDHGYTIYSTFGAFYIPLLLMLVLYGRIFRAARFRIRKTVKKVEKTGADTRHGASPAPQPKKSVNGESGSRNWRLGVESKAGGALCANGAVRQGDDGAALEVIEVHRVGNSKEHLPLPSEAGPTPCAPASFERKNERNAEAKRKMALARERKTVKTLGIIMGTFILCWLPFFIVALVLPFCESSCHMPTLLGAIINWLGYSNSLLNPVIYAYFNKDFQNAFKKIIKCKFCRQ

[21] = target: Glucocorticoid receptor (Homo sapiens) (UniProt P04150); conditions: Compound concentration 10.0 uM
Glucocorticoid receptor (Homo sapiens), sequence (P04150 whole entry): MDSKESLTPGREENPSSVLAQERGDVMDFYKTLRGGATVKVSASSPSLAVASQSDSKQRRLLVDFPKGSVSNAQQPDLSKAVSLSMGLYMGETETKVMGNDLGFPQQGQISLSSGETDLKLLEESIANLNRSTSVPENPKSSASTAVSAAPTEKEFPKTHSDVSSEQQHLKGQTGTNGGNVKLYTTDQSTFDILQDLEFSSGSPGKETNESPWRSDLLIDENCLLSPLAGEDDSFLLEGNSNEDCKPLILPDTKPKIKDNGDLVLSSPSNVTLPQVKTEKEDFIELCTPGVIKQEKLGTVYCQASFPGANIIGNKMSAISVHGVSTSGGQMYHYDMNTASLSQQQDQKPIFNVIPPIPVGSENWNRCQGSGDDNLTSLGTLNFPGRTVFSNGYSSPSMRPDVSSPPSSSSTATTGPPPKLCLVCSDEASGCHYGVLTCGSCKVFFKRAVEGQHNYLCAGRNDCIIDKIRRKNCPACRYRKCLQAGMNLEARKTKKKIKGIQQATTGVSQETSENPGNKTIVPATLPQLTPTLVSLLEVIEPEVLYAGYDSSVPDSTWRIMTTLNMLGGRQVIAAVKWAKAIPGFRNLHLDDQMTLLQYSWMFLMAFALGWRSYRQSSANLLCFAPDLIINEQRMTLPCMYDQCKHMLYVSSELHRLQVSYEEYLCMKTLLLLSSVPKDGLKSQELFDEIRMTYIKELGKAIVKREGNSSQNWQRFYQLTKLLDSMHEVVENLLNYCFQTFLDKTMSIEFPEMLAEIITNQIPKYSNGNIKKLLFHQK

[22] = target: Beta-3 adrenergic receptor (Homo sapiens) (UniProt P13945); conditions: Compound concentration 10.0 uM
Beta-3 adrenergic receptor (Homo sapiens), sequence (P13945 whole entry, looked up): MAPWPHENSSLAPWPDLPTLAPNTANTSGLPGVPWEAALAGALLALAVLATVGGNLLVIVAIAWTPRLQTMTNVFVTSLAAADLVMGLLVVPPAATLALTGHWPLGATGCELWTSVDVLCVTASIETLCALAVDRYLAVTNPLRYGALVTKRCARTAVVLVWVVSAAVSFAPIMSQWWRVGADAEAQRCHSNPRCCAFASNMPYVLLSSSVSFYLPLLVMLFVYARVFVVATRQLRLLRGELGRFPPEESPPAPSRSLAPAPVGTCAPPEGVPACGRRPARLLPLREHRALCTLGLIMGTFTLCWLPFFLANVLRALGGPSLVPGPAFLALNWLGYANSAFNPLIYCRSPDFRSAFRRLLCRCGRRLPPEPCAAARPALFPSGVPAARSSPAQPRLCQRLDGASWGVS

[23] = target: Type-2 angiotensin II receptor (Homo sapiens) (UniProt P50052); conditions: Compound concentration 10.0 uM
[24] = target: Gamma-aminobutyric acid type B receptor subunit 1 (Homo sapiens) (UniProt Q9UBS5); conditions: Rattus norvegicus; Compound concentration 10.0 uM
Gamma-aminobutyric acid type B receptor subunit 1 (Homo sapiens), sequence (Q9UBS5 whole entry): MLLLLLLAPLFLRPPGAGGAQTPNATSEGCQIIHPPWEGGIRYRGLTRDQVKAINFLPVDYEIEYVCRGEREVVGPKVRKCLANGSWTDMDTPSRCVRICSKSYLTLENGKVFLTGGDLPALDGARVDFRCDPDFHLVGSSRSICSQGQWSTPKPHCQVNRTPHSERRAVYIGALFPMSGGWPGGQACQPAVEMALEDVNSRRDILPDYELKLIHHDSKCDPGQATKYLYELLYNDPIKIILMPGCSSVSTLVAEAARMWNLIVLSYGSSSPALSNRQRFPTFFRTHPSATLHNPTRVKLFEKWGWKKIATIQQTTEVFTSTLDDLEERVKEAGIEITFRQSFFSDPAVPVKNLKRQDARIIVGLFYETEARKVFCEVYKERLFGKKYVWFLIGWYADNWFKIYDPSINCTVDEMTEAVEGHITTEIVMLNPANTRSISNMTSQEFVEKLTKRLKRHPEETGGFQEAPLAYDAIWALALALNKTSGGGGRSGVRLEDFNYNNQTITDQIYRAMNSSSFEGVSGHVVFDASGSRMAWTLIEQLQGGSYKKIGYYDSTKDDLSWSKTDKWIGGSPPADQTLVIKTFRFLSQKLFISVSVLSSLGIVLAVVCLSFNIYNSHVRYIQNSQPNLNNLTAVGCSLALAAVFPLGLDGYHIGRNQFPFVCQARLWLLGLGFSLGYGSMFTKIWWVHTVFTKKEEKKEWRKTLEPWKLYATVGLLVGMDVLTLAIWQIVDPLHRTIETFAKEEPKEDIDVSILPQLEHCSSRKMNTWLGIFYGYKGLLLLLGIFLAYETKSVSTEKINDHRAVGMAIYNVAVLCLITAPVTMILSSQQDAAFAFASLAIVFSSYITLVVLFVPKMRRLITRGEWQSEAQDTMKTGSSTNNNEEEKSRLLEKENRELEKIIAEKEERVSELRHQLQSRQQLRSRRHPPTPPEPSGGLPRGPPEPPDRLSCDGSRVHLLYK

[25] = target: Progesterone receptor (Homo sapiens) (UniProt P06401); conditions: Compound concentration 10.0 uM

D(2) dopamine receptor (Homo sapiens), sequence (P14416 whole entry): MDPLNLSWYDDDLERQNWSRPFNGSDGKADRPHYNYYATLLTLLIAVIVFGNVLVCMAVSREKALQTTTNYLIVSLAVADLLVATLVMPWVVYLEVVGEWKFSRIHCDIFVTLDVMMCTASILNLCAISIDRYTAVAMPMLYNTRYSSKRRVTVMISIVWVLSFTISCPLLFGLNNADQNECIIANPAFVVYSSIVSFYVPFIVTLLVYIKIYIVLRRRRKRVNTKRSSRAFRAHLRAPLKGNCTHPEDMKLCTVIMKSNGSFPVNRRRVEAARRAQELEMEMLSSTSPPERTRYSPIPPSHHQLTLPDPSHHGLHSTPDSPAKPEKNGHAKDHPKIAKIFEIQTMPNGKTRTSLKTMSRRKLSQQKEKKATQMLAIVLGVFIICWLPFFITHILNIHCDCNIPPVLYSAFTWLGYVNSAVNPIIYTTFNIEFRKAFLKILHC
5-hydroxytryptamine receptor 2B (Homo sapiens), sequence (P41595 whole entry): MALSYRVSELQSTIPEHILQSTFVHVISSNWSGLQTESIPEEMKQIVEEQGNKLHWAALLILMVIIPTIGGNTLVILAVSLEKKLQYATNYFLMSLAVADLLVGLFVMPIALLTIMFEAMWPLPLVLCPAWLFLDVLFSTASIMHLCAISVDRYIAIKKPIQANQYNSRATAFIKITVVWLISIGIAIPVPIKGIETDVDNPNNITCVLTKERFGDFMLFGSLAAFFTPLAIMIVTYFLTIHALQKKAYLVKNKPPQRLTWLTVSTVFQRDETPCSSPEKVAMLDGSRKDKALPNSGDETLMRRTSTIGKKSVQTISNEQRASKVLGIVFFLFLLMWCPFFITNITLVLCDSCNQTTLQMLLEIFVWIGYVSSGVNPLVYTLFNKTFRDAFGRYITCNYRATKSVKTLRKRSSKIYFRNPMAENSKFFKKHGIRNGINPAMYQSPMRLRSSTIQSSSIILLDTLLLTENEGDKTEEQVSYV

inhibition [1]: 18%
inhibition [2]: -4.02%
inhibition [3]: -4.34%
Structure (SMILES): COc1cc(N[C@@H]2CCCC[C@]2(O)C(F)(F)F)ccc1F [BAY-9897]

Structure (SMILES): O[C@]1(C(F)(F)F)CCCC[C@H]1Nc1ccc(F)cc1 [BAY-390]
Ki [4]: 2580 nM
IC50 [5]: 2500 nM
Ki [5]: 720 nM
inhibition [6]: -3%
inhibition [7]: 3%
inhibition [8]: -2%
inhibition [9]: 56.5%
inhibition [10]: 36.2%
inhibition [11]: 18%
inhibition [12]: 18%
inhibition [13]: 13%
inhibition [14]: 75%
inhibition [15]: 6%
inhibition [16]: -8%
inhibition [17]: -2%
inhibition [18]: -6%
inhibition [19]: -6%
inhibition [20]: 10%
inhibition [21]: 4%
inhibition [22]: 1%
inhibition [23]: 1%
inhibition [24]: 3%
inhibition [25]: 65%

— ChEMBL document CHEMBL4507328, “Data for DCP probe BAY-390” (2021)
